Key:
HCT116-S100A4 cells = test: Soft agar colony formation assay; assay type: cell-based, human; conditions: 1 μM, 7 days
Description: (§1) Analysis of anchorage-independent cell proliferation was achieved by soft agar colony formation assay. A bottom layer containing 0.5% w/v agarose, RPMI-1640 medium, 10% FBS and 1 μM niclosamide or the respective amount of DMSO was added to a 6 cm Ø dish and incubated at room temperature under sterile conditions for 10 minutes. Onto the solidified bottom layer a top layer was added containing 8×10^3 cells, 0.33% w/v agarose, RPMI-1640 medium, 10% FBS and 1 μM niclosamide or the respective amount of DMSO. Cells were seeded as single cells into the soft agar and incubated in a humidified incubator at 37° C. and 5% CO2 for 7 days. Colony formation was visualized by 10× magnification for an overview and 40× magnification for single colonies in the Leica DM IL light microscope (Leica Microsystems). Colony quantification was achieved by counting cell colonies of more than 4 cells in 10 squares of […]. Colony formation experiments were repeated twice, each in triplicates.
(§2) (A) Cell migration of HCT116-vector and HCT116-S100A4 cells exposed to niclosamide treatment. Cells were treated with 1 μM niclosamide for 24 hours and migration rates were measured with Boyden chamber assay. (B) Cell invasion of HCT116-vector and HCT116-S100A4 cells exposed to niclosamide treatment. Cells were treated with 1 μM niclosamide for 24 hours and cell invasion was determined by Boyden chamber assay. (C) Directed migration of HCT116-vector and HCT116-S100A4 cells exposed to niclosamide treatment analyzed by wound healing assay. Wounds of 300 μM width were set in a 60% confluent monolayer of HCT116-vector or HCT116-S100A4 cells on day 1. Cells were treated daily with 1 μM niclosamide for 4 days. Microphotographs of day 4 are presented here with black lines indicating margins of entered wound of day 1; scale bar represents 200 μM. Data represents three independent experiments. (D) Adhesive cell proliferation of HCT116-vector and HCT116-S100A4 cells exposed to niclosamide treatment. Cells were treated daily with 1 μM niclosamide and cell viability was determined with MTT assay. (E) Anchorage-independent cell growth of HCT116-vector and HCT116-S100A4 cells exposed to niclosamide treatment. Cells were plated as single cells into 0.33% (w/v) agarose and treatment (solvent or 1 μM niclosamide) containing medium. After 7 days colonies were visualized by light microscopy at 10× (overview) and 40× (single colony) magnification. (F) Quantification of colonies formed. Number of colonies (of more than 4 cells) was counted and normalized to solvent-treated HCT116-vector cells. Differences of niclosamide vs. solvent-treated cells were analyzed by Student's t test. Data represent mean±SE (n>2) of at least two independent experiments each performed in at least duplicate.

HCT116-vector cells = test: Soft agar colony formation assay; assay type: cell-based, human; conditions: 1 μM, 7 days
Description: as §1, §2

[1] = humans, taken orally; cited from earlier work
HCT116 cells = test: Boyden chamber transwell migration assay; assay type: cell-based, human; conditions: for cell migration rate, mean %: 1 μM daily for 3 days
Description: HCT116, SW620, LS174T, SW480 and DLD-1 cells were used in cell migration and invasion analysis performed with Boyden chamber assay. 400 μL containing 2.5×10^5 cells were seeded into each transwell chamber with filter membranes of 12.0 μm pore size (Millipore, Schwalbach, Germany). For invasion filter membranes were coated with 50 μL Matrigel (diluted 1:3 in RPMI-1640; BD Biosciences) 10 minutes before cells were seeded. Fresh medium (600 μL) were added to the bottom chamber and cells were allowed to attach to the insets for 15 hours. […] Afterwards insets were removed and cells that had migrated through the membrane to the lower chamber were trypsinized and counted in a Neubauer chamber (LO-Laboroptik, Bad Homburg, Germany). Each well was counted ten times. Each migration or invasion experiment was performed in duplicate. The average number of migrated or invaded cells was determined for at least three independent experiments.
(A) Chemical structure of niclosamide and its derivatives. In 2D illustrations the niclosamide structure was compared with the structure of niclosamide derivatives; marked in solid circles or boxes are added chemical groups, marked in grey and surrounded by dotted lines are removed chemical groups. In 3D illustrations grey clouds represent van der Waals surface, red and blue indicate negative and positive charges, respectively. (B) S100A4 expression under treated conditions. HCT116 cells were treated with 1 μM niclosamide or one of the niclosamide derivatives for 24 hours. S100A4 expression was analyzed by qRT-PCR and immunoblot. (C) Cell migration under treated conditions. HCT116 cells were treated with 1 μM niclosamide or one of its derivatives for 24 hours and cell migration was determined by Boyden chambder assay. Cells migrated to the lower chamber were counted and normalized to the number of migrated, solvent-treated HCT116 cells. Comparison of niclosamide or derivative-treated vs. solvent-treated cells was performed by two-sided one-way analysis of variance and Bonferroni post hoc multiple comparison test. Data is given as mean±SE at least four independent experiments each performed in duplicates.
For WNT pathway analysis the following cells were applied: HCT116 cells (heterozygous for gain-of-function-mutated CTNNB1; wt/mut), HAB-68mut cells (deletion mutant of HCT116, expressing only gain-of-function-mutated CTNNB1: −/mut) and HAB-92 wt cells (deletion mutant of HCT116, expressing only wild-type CTNNB1: wt/−). (A) CTNNB1 genotype dependent effect of niclosamide on LEF/TCF transcription factor reporter gene expression. Cells were treated with 1 μM niclosamide for 24 hours. Reporter gene expression was determined by luciferase activity measurement. For each condition and cell line TOPflash expression was normalized to FOPflash expression. (B) CTNNB1 genotype dependent effect of niclosamide on S100A4 expression. Cells were treated with 1 μM niclosamide for 24 hours. S100A4 expression was analyzed by qRT-PCR and immunoblot. (C) CTNNB1 genotype dependent effect of niclosamide on migration rates. Cells were treated with 1 μM niclosamide for 24 hours and cell migration was determined by Boyden chamber assay. Data represents mean±SE of at least three independent experiments. Differences were analyzed by Student's t test (n.s.; not statistically significant). (D) Nuclear localization of CTNNB1 under niclosamide treatment. Nuclear extracts of HCT116 cells treated with the indicated concentrations of niclosamide for 18 hours were analyzed by immunoblot. (E) Effect of niclosamide on CTNNB1/TCF complex. Nuclear extracts of HCT116 cells treated with the indicated concentrations of niclosamide for 18 hours were analyzed by EMSA for the TCF-binding site of the S100A4 promoter. Supershift was performed by addition of a monoclonal anti-CTNNB1 antibody. (F) Presence of CTNNB1 on the S100A4 promoter under niclosamide treatment. HCT116 cells were treated with 1 μM niclosamide for 18 hours and processed for ChIP assay. […]

Structure (SMILES): O=C(Nc1ccc([N+](=O)[O-])cc1Cl)c1cc(Cl)ccc1O [niclosamide, 2′,5-dichloro-4′-nitrosalicylanilide]
- colony size (HCT116-S100A4 cells): clearly reduced
- number of colonies, mean difference control vs niclosamide (HCT116-S100A4 cells): 100.7%
- number of colonies, mean % of solvent-treated HCT116-vector cells (HCT116-S100A4 cells; solvent control 105.8%): 5.0%
- colony size (HCT116-vector cells): clearly reduced
- number of colonies, mean % of solvent-treated HCT116-vector cells (HCT116-vector cells): 6.8%
- number of colonies, mean difference control vs niclosamide (HCT116-vector cells): 93.2%
- side effects [1]: only slight side effects
- cell migration rate, mean % (HCT116 cells; 24 hours post-treatment, control 100.0%): 18.7%
- cell migration rate, mean % (HCT116 cells; 48 hours post-treatment, control 100.0%): 12.2%
- cell migration rate, mean % (HCT116 cells; 72 hours post-treatment, control 108.8%): 10.4%
- migration rate, mean difference control vs niclosamide (HCT116 cells; 1 μM, 24 h (relative scale)): 0.54
- migration rate, mean (relative to HCT116 control) (HCT116 cells; 1 μM, 24 h, control 1.00): 0.45
- migration, mean difference control vs niclosamide (HCT116 cells; 24 hours post-treatment): 81.3%
- migration, mean difference control vs niclosamide (HCT116 cells; 48 hours post-treatment): 87.8%
- migration, mean difference control vs niclosamide (HCT116 cells; 72 hours post-treatment): 98.4%

Source: patent US11331290B2, “Niclosamide for the treatment of cancer metastasis” (Max-Delbrück-Centrum für Molekulare Medizin in der …, priority 2011, dated 2022)
